Patent US6140354A, “N-substituted aminotetralins as ligands for the neuropeptide Y Y5 receptor useful in the treatment of obesity and other disorders” (Ortho-McNeil Pharmaceutical, Inc., priority 1999, dated 2000)

Tests used:
[1] = Rodent Feeding Model: Measurement of Food Intake in Food-Deprived Rats; assay type: in vivo, Male Long-Evans rats; settings: 30 mg/kg i.p., N = 8; for Food Consumption (% chg.) 0-2 hrs / Food Consumption (% chg.) 0-6 hrs / Food Consumption (% chg.) 2-6 hrs: vs vehicle, negative = reduction
Method: Male Long-Evans rats (180-200 grams) are housed individually and are maintained on a once-a-day feeding schedule (i.e. 10 a.m. until 4 p.m.) for five days following quarantine to allow the animals to acclimate to feeding on powdered chow (#5002 PMI Certified Rodent Meal) during the allotted time. The chow is made available in an open jar, anchored in the cage by a wire, with a metal follower covering the food to minimize spillage. Water is available ad-libitum.
Animals are fasted for 18 hours prior to testing. At the end of the fasting period, animals are administered either compounds of the invention or vehicle. Vehicle and test compounds are administered either orally (5 mL/kg) 60 minutes prior to the experiment, or 30 minutes prior when given subcutaneously (1 mL/kg) or intraperitoneally (1 mL/kg). Compounds of the invention are administered orally as a suspension in aqueous 0.5% methylcellulose-0.4% Tween 80, or intraperitoneally as a solution or suspension in PEG 200; compound concentrations typically range from 1 mg/kg to 100 mg/kg, preferably from 10-30 mg/kg. Food intake is measured at 2, 4, and 6 hours after administration by weighing the special jar containing the food before the experiment and at the specified times. Upon completion of the experiment, all animals are given a one-week washout period before retesting.
Percent reduction of food consumption is calculated subtracting the grams of food consumed by the treated group from the grams of food consumed by the control group divided by the grams of food consumed by the control group, multiplied by 100. [formula] A negative value indicates a reduction in food consumption and a positive value indicates an increase in food consumption.

[2] = target: T1, human neuropeptide Y5 receptor (Homo sapiens, UniProt Q15761); test: NPY5 HTS Centrifugation Assay: competition with 125I-PYY for binding to NPY5-transfected HEK293 cell membranes; settings: 80 pM 125I-PYY, 1 hr room temperature, read-out: % Inh @ 3 uM (% Inhibition of ^125 I-PYY Binding)
T1 construct: expressed in transfected cells
T1 sequence (Q15761 1-445): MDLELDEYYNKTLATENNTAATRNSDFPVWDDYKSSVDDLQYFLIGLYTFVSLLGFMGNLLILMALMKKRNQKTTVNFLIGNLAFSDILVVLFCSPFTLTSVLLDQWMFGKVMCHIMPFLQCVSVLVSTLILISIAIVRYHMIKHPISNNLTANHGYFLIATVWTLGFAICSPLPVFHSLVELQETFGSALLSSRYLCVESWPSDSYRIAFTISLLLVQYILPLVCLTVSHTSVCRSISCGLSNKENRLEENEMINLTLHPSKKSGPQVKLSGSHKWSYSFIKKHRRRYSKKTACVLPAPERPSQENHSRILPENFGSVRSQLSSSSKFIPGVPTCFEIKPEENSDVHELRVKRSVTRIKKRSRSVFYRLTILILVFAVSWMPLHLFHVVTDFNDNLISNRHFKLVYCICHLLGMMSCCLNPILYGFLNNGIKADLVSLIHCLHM
Method: The compounds described in this invention were evaluated for binding to the human neuropeptide Y5 receptor.
The human NPY5 receptor cDNA (Genbank Accession number U66275) was inserted into the vector pClneo (Invitrogen) and transfected into human embryonic kidney cells (HEK-293) via Calcium phosphate method (Cullen 1987). Stably transfected cells were selected with G-418 (600 ug/mL). Stably transfected cells served as the source for the membranes for the NPY5 receptor binding assay.
NPY5-transfected HEK293 cells were grown to confluence in 150 cm^2 culture dishes. Cells were washed once with phosphate-buffered saline (Gibco Cat#14040-133). Cells were then incubated in phosphate-buffered saline without Calcium and without Magnesium, supplemented with 2 mM EDTA. Cells were incubated for 10 minutes at room temperature and the cells were collected by repetitive pipeting. Cells were formed into pellets and then frozen at -80 until needed. Frozen pellets were homogenized with a polytron at full speed for 12 seconds in a homogenization buffer (20 mM Tris HCl, 5 mM EDTA, pH 7.4). Homogenates were centrifuged for 5 minutes at 4C at 200 g. Supernatants were transferred to corex tubes and centrifuged for 25 minutes at 28,000 g. Pellets were re-suspended in Binding (20 mM HEPES, 10 mM NaCl, 0.22 mM KH2 PO4, 1.3 mM CaCl2, 0.8 mM MgSO4, pH 7.4). Membranes were kept on ice until use.
A competition binding assay, known to those skilled in the art, was used in which aminotetralins (I) compete with ^125 I-PYY for binding to cell membranes. In simple terms, the less ^125 I-PYY bound to the membranes implies that a compound is a good inhibitor (competitor). Bound ^125 I-PYY is determined by centrifugation of membranes, aspirating supernatant, washing away residual ^125 I-PYY and subsequently counting the bound sample in a g-counter.
Compounds to be tested were prepared as 10× stocks in binding buffer and added first to assay tubes (RIA vials, Sarstedt). Twenty (20) μL of each 10× compound stock is pipeted into vials and 80 μL of ^125 I-PYY (NEN catalog number NEX240), which has been diluted to a concentration of 200 pM in 0.25% BSA in binding buffer, is added to the compound tubes (final concentration of ^125 I-PYY is 80 pM). To each tube is added 100 μL of membranes and the mixture is agitated by pipeting 2 times. Samples are incubated for 1 hr at room temperature. Aluminum cast plates (Sarstedt) containing the vials are then centrifuged 10 minutes at 3200 rpm in a Sorvall RT6000. Supernatant is then aspirated. To each vial 400 μL PBS is added and this is then aspirated again. Vials are then put in carrier polypropylene 12×75 tube and counted in gamma counter (Packard). Non-specific binding is determined in the presence of 300 nM NPY. Percent inhibition of ^125 I-PYY binding is calculated by subtracting non-specific binding from the test samples (compound (I)), taking these counts and dividing by total binding, and multiplying by 100. Inhibitory concentration values (IC50) of compounds that show appreciable inhibition of ^125 I-PYY binding are calculated by obtaining percent inhibition of ^125 I-PYY binding values at different concentrations of the test compound, and using a graphing program such as GraphPad Prism (San Diego, Calif.) to calculate the concentration of test compound that inhibits fifty-percent of ^125 I-PYY binding (Table 4). These operations are known to those skilled in the art.

[3] = cited from earlier work
[4] = test system: classic Y1 receptor; settings: cited from earlier work
[5] = animal models of learning; cited from earlier work
[6] = icv or into the amygdala; cited from earlier work
[7] = test system: forskolin-stimulated cAMP production/levels in a neuroblastoma cell line; settings: cited from earlier work

Row | Compound | Food Consumption (grams) 0-2 hrs [1] [g] | Food Consumption (% chg.) 0-2 hrs [1] [%] | Food Consumption (grams) 0-6 hrs [1] [g] | Food Consumption (% chg.) 0-6 hrs [1] [%] | Food Consumption (grams) 2-6 hrs [1] [g] | Food Consumption (% chg.) 2-6 hrs [1] [%] | inhibition at 3 µM [2] [%] | feeding ([3]; NPY fragment) | binding at the classic Y1 receptor [4] | food intake ([3]; as little as one-billionth of a gram injected directly into the CNS, satiated rats) | memory and performance scores [5] | anxiolytic effects [6] | forskolin-stimulated cAMP production/levels [7]
1 | COc1ccc2c(c1)CCC(NC[C@H]1CC[C@H](CNS(=O)(=O)c3ccccc3F)CC1)C2Cc1cccnc1 (relative stereo) [Compound 43] | 6.63 | -17.1 | 15.25 | -17.6 | 8.63 | -17.8 | – | – | – | – | – | – | –
2 | O=S(=O)(NC[C@H]1CC[C@H](CN[C@H]2CCc3cc(O)ccc3[C@H]2Cc2cccnc2)CC1)c1ccccc1F (relative stereo) [Compound 44, rac-[1α,2α(trans)]-N-[[[[[1,2,3,4-tetrahydro-6-hydroxy-1-(3-pyridinylmethyl)-2-naphthalenyl]amino]methyl]-4-cyclohexyl]methyl]2-fluorobenzenesulfonamide] | 4.75 | -40.6 | 14.00 | -24.3 | 9.25 | -11.9 | 101 | – | – | – | – | – | –
3 | COc1ccc2c(c1)CC[C@H](NC[C@H]1CC[C@H](CNS(=O)(=O)c3ccc(OC)c(OC)c3)CC1)[C@@H]2Cc1ccccc1 (relative stereo) [Compound 53] | 5.75 | -33.3 | 11.88 | -40.2 | 6.13 | -45.6 | – | – | – | – | – | – | –
4 | O=S(=O)(NC[C@H]1CC[C@H](CNC2CCc3cc(F)ccc3C2Cc2cccnc2)CC1)c1ccccc1F (relative stereo) [Compound 111] | 5.13 | -35.9 | 12.63 | -31.7 | 7.50 | -28.6 | – | – | – | – | – | – | –
5 | O=S(=O)(NC1CCC(CNC2CCc3ccccc3C2Cc2cccnc2)CC1)c1ccccc1 (centres unmarked) [Compound 112] | – | – | – | – | – | – | 95 | – | – | – | – | – | –
6 | NPY2-36: NPY fragment | – | – | – | – | – | – | – | potent inducer of feeding | poor binding | – | – | – | –
7 | Neuropeptide Y: single peptide protein that consists of thirty-six amino acids containing an amidated C-terminus | – | – | – | – | – | – | – | – | – | causes satiated rats to overeat | improves memory and performance scores | produces anxiolytic effects | inhibits forskolin-stimulated cAMP production/levels
